Patent publication EP2272817A1, “PAI-1 INHIBITOR” (Institute of Medicinal Molecular Design, Inc., priority 2008, dated 2009)

molecular target: recombinant human PAI-1 (Homo sapiens, UniProt P05121); assay: biochemical; settings: read-out: Inhibition Rate of PAI Activity (%)
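Also: PAI-1 preincubated with compound, then two-chain tPA added, residual tPA activity read with fluorogenic Pyr-Gly-Arg-MCA substrate after 30 min at room temperature.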

Chain of recombinant human PAI-1 (P05121 24-402): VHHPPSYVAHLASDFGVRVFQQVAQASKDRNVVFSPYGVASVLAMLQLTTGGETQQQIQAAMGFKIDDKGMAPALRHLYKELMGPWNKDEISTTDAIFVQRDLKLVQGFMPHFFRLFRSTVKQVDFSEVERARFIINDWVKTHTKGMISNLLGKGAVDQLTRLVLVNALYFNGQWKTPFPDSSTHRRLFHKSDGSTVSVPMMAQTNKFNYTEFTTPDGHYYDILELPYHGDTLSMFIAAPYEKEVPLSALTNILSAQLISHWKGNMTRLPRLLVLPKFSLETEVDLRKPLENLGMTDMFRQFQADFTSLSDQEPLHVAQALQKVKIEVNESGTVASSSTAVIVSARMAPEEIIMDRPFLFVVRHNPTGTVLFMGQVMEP

Row | Compound | inhibition at 5 µM | inhibition at 10 µM | inhibition at 25 µM
1 | Cc1cc(C)cc(COc2ccc(-c3ccc(OC(F)(F)F)cc3)cc2CC(=O)O)c1 [Compound 11] | 41% | 84% | 99%
2 | O=C(O)/C=C/c1cc(-c2ccc(OC(F)(F)F)cc2)ccc1OCc1cccc(C(F)(F)F)c1 [Compound 57] | 24% | 53% | 82%
3 | Cc1ccc(COc2ccc(-c3ccc(OC(F)(F)F)cc3)cc2CCC(=O)O)cc1 [Compound 61] | 21% | 48% | 97%

same assay, conditions: read-out: Inhibition Rate of PAI-1 Activity (%)

Row | inhibition at 5 µM | inhibition at 10 µM | inhibition at 25 µM | Compound
4 | 14% | 31% | 84% | O=C(O)CCc1cc(OCc2ccc(OC(F)(F)F)cc2)ccc1OCc1ccc(OC(F)(F)F)cc1 [Compound 404]
5 | 58% | 89% |  | CC(C)(C)c1ccc(N(C(=O)C(=O)O)c2ccc(-c3ccc(OC(F)(F)F)cc3)cc2)cc1 [Compound 128]
6 | 74% | 92% | 87% | CC(C)(C)c1ccc(CN(C(=O)C(=O)O)c2ccc(Cl)cc2Oc2ccc(OC(F)(F)F)cc2)cc1 [Compound 191]
7 | 56% | 89% | 88% | CC(C)(C)c1ccc(CN(C(=O)C(=O)O)c2ccc(SCc3ccc(OC(F)(F)F)cc3)cc2)cc1 [Compound 630]
8 | 21% | 43% |  | CC(C)(C)c1ccc(CN(C(=O)C(=O)O)c2ccc(-c3ccc(F)cc3)cc2)cc1 [Compound 127]
9 | 30% | 74% | > 99% | CC(C)(C)c1ccc(-c2ccc(N(Cc3ccc(OC(F)(F)F)cc3)C(=O)C(=O)O)cc2)cc1 [Compound 162]
10 | 3% | 6% | 34% | CCCCCCN(C(=O)C(=O)O)c1ccc(Oc2ccc(OC(F)(F)F)cc2)cc1 [Compound 252]
11 | 7% | 15% | 38% | O=C(O)C(=O)N(Cc1ccc(F)cc1)c1ccc(-c2ccc(OC(F)(F)F)cc2)cc1 [Compound 155]
12 | 55% | 88% | 94% | CC(C)(OCc1ccc(-c2ccc(OC(F)(F)F)cc2)cc1Oc1ccc(C(C)(C)C)cc1)C(=O)O [Compound 111]
13 | 41% | 88% | 93% | Cc1cc(-c2ccc(OC(F)(F)F)cc2)cc(C)c1N(Cc1ccc(C(C)(C)C)cc1)C(=O)C(=O)O [Compound 152]
14 | 37% | 84% | > 99% | CC(C)(C)c1ccc(CN(C(=O)C(=O)O)c2ccc(-c3ccc(C(C)(C)C)cc3)cc2)cc1 [Compound 163]
15 | 40% | 61% | 85% | CC(C)(C)c1ccc(COc2cccc(Oc3ccc(OC(F)(F)F)cc3)c2/C=C/C(=O)O)cc1 [Compound 85]
16 |  | 32% | 82% | CC(C)(C)c1ccc(CN(C(=O)C(=O)O)c2ccc(Oc3ccc(OC(F)(F)F)cc3)cc2)cc1 [Compound 132]
17 | 71% | 91% |  | CCCCCOc1ccc(N(CCCCc2ccccc2)C(=O)C(=O)O)cc1-c1ccc(OC(F)(F)F)cc1 [Compound 244]
18 | 70% | 94% | 98% | CC(C)(C)c1ccc(-c2ccc(N(Cc3ccccc3OC(F)(F)F)C(=O)C(=O)O)cc2)cc1 [Compound 202]
19 | 67% | 95% | 91% | CC(C)(C)c1ccc(CN(C(=O)C(=O)O)c2ccc(Sc3ccc(OC(F)(F)F)cc3)cc2)cc1 [Compound 621]
20 | 37% | 71% | 98% | CC(C)(C)c1ccc(COc2cc(CCC(=O)O)cc(Oc3ccc(OC(F)(F)F)cc3)c2)cc1 [Compound 410]
21 | 37% | 51% | 83% | CC(C)(Oc1ccc(-c2ccc(OC(F)(F)F)cc2)cc1Oc1ccc(C(C)(C)C)cc1)C(=O)O [Compound 110]
22 | 25% | 56% | 96% | CC(C)(C)c1ccc(N(C(=O)C(=O)O)c2ccccc2-c2ccc(OC(F)(F)F)cc2)cc1 [Compound 157]
23 | 58% | 86% | 86% | CC(C)(C)c1ccc(CN(C(=O)C(=O)O)c2ccccc2Sc2ccc(OC(F)(F)F)cc2)cc1 [Compound 631]
24 | 45% | 71% | 95% | O=C(O)C(=O)N(CCCCCc1ccccc1)c1ccc(-c2ccc(OC(F)(F)F)cc2)cc1 [Compound 228]
25 | 28% | 63% | 70% | COc1cc(-c2ccc(OC(F)(F)F)cc2)cc(/C=C/C(=O)O)c1OCc1ccc(C(C)(C)C)cc1 [Compound 81]
26 | 29% | 63% | 99% | CC(C)(C)c1ccc(COc2ccc(-c3ccc(OC(F)(F)F)cc3)cc2OCc2nn[nH]n2)cc1 [Compound 122]
27 | 19% | 36% | 71% | O=C(O)C(=O)N(Cc1ccccc1)c1c(Cl)cc(-c2ccc(OC(F)(F)F)cc2)cc1Cl [Compound 180]

Row | inhibition at 5 µM | inhibition at 10 µM | inhibition at 25 µM | Compound
28 | 83% | 78% |  | CC(C)(C)Oc1ccc(N(Cc2ccc(C(C)(C)C)cc2)C(=O)C(=O)O)cc1-c1ccc(OC(F)(F)F)cc1 [Compound 218]
29 | 17% | 55% | 98% | CC(C)(C)c1ccc(CN(C(=O)C(=O)O)c2ccccc2-c2ccc(OC(F)(F)F)cc2)cc1 [Compound 148]
30 | 33% | 67% | 96% | CC(C)(C)c1ccc(COc2ccc(OCc3ccc(OC(F)(F)F)cc3)cc2CCC(=O)O)cc1 [Compound 414]
31 | 3% | 9% | 31% | CCCCCN(C(=O)C(=O)O)c1ccc(-c2ccc(OC(F)(F)F)cc2)cc1 [Compound 254]
32 | 59% | 86% | 85% | Cc1cc(N(Cc2ccc(C(C)(C)C)cc2)C(=O)C(=O)O)ccc1-c1ccc(OC(F)(F)F)cc1 [Compound 184]
33 | 48% | 80% | 94% | CCCOc1ccc(N(CCCc2ccccc2)C(=O)C(=O)O)cc1-c1ccc(OC(F)(F)F)cc1 [Compound 229]
34 | 52% | 82% | 96% | CCCOc1ccc(N(CCCc2ccccc2)C(=O)C(=O)O)c(-c2ccc(OC(F)(F)F)cc2)c1 [Compound 232]
35 | 6% | 31% | 77% | CC(C)(C)c1ccc(CN(C(=O)C(=O)O)c2cc(-c3ccccc3)cc(C(F)(F)F)c2)cc1 [Compound 140]
36 | 22% | 44% | 81% | O=C(O)C(=O)N(Cc1c(Cl)cccc1Cl)c1ccc(-c2ccc(OC(F)(F)F)cc2)cc1 [Compound 171]
37 | 15% | 31% |  | Cc1cccc(CN(C(=O)C(=O)O)c2ccc(-c3ccc(OC(F)(F)F)cc3)cc2)c1 [Compound 125]
38 | 42% | 73% | > 99% | O=C(O)CCc1cc(-c2ccc(OC(F)(F)F)cc2)ccc1OCCCc1ccccc1 [Compound 101]
39 | 27% | 46% | 56% | Cc1cc(-c2ccc(OC(F)(F)F)cc2)cc(/C=C/C(=O)O)c1OCc1ccc(C(C)(C)C)cc1 [Compound 83]
40 | 21% | 45% | 92% | O=C(O)C(=O)N(Cc1ccc(OC(F)(F)F)cc1)c1ccc(-c2ccc(OC(F)(F)F)cc2)cc1 [Compound 159]
41 | 27% | 62% | > 99% | O=C(O)C(=O)N(Cc1ccc(-c2ccccc2)cc1)c1ccc(-c2ccc(OC(F)(F)F)cc2)cc1 [Compound 161]
42 | 14% | 26% | 68% | CSc1ccc(CN(C(=O)C(=O)O)c2ccc(-c3ccc(OC(F)(F)F)cc3)cc2)cc1 [Compound 160]
43 | 59% | 87% | 98% | CC(C)(C)c1ccc(Oc2cc(-c3ccc(OC(F)(F)F)cc3)ccc2OC(F)(F)C(=O)O)cc1 [Compound 120]
44 |  | 3% | 34% | CC(C)(C)c1ccc(CN(C(=O)C(=O)O)c2ccc(-c3ccc(C#N)cc3)cc2)cc1 [Compound 149]
45 |  | 3% | 33% | CC(C)(C)c1ccc(CN(C(=O)C(=O)O)c2ccc(-c3cccc([N+](=O)[O-])c3)cc2)cc1 [Compound 142]
46 | 86% | 84% |  | CC(C)(C)c1ccc(CN(C(=O)C(=O)O)c2ccc(N3CCCCC3)c(-c3ccc(OC(F)(F)F)cc3)c2)cc1 [Compound 217]
47 | 35% | 80% | 90% | CC(C)(C)c1ccc(CN(C(=O)C(=O)O)c2ccc(-c3ccc(OC(F)(F)F)cc3)cc2OC(F)(F)F)cc1 [Compound 151]
48 | 39% | 70% | 94% | CCCOc1ccc(N(Cc2ccccc2)C(=O)C(=O)O)cc1-c1ccc(OC(F)(F)F)cc1 [Compound 210]
49 | 38% | 66% | 84% | CC(C)(C)c1ccc(COc2ccc(OCc3ccc(OC(F)(F)F)cc3)cc2/C=C/C(=O)O)cc1 [Compound 413]
50 | 20% | 54% | 93% | CC(C)(C)c1ccc(CN(C(=O)C(=O)O)c2ccccc2Oc2ccc(OC(F)(F)F)cc2)cc1 [Compound 153]

Row | Compound | inhibition at 5 µM | inhibition at 10 µM | inhibition at 25 µM
51 | CC(C)(C)c1ccc(CN(C(=O)C(=O)O)c2ccc(-c3ccc(OC(F)(F)F)cc3)cc2)cc1 [Compound 133] | 80% | 92% | 
